{"source": "patent US11883631B2", "about": "(priority 2015, dated 2024)", "origin": "cited, not measured here", "key": {"[1]": {"settings": "in vivo"}, "[2]": {"settings": "EEG monitor effect site; 18-60 yr"}, "[3]": {"settings": "10 mg/s vs 2 mg/s"}, "[4]": {"settings": "in vivo", "remark": "listed apart in the source"}}}
{"molecule": "CC(C)c1cccc(C(C)C)c1O", "note": "[propofol]", "values": [{"measurement": "Propofol concentration associated with awakening from anesthesia", "setting": "[1]", "value": "< 1.8", "unit": "µg/mL"}, {"measurement": "ke0", "setting": "[2]", "value": 0.456, "unit": "min⁻¹"}, {"measurement": "Reductions in systolic blood pressure (SBP)", "setting": "during induction of anesthesia with propofol", "value": "greater than 25%"}, {"measurement": "plasma concentration at which propofol may significantly decrease SBP", "setting": "patients aged 20-85 yr, effect more evident in elderly (>70 yr)", "value": "> 10000", "unit": "ng/mL"}, {"measurement": "drop in mean arterial pressure, higher vs lower infusion rate", "setting": "[3]", "value": "larger drop in mean arterial pressure"}, {"measurement": "effect-site concentration at burst suppression onset", "setting": "[4]", "value": "higher than 8 μg/ml"}]}
